pIC50: −log10 of the molar value. *1 amine or outer side, *2 acyl side, *3 side chain or, on linkers, in order; H or OH if unused. Where a SMILES comes first, the peptide text is derived from it. Primed or numbered codes have the meaning given here. [ ]: non-standard residue; d: D form. The star is where a group is joined. aIle′ = Ile with backbone amide N-amino (hydrazide NNH2), CC[C@H](C)[C@@H](C(=O)[*:2])N(N)[*:1]; aVal = Val with backbone amide N-amino (hydrazide NNH2), CC(C)[C@@H](C(=O)[*:2])N(N)[*:1]; X2 = NN([C@@H](Cc1ccc(O)cc1)C(=O)[*:2])[*:1]; X1 = CC[C@H](C)[C@@H](C(=O)[*:2])N(N)[*:1]; N(NH2)LysNH2 = NCCCC[C@@H](C(N)=O)N(N)*; X3 = CC(C)[C@@H](C(=O)[*:2])N(N)[*:1]
Assays:
[1] = in vitro; details: human, serum, intact peptide in 25% human serum
Procedure: (§1) Human Serum Stability Assay. The stability of NAPs in 25% human serum (MilliporeSigma) was assessed by HPLC. The reaction was started by adding NAPs at a final concentration of 500 μM in pre-warmed serum. The mixture was incubated at 37° C. for 24 h. A 100 μL aliquot of the reaction mixture was taken out at 0, 1, 4, and 24 h and was mixed with an equal volume of 20% trichloroacetic acid and incubated at 4° C. for 15 min to precipitate serum proteins. After centrifugation at 12,000 rpm for 10 min, the supernatant was collected and mixed with an internal standard (1 mg/mL Cbz-Tyr-OH dissolved in MeCN) and stored at −20° C. Samples were then analyzed by LC-MS, and the percentage of peptide remaining was calculated by integrating peaks.

[2] = Self-aggregation of peptides alone by ThT fluorescence; type: physicochemical; details: incubated alone in aq. NaOAc buffer, 48 h
Description: NAP Tau Mimics Inhibit Tau Fibrilization In Vitro. We chose thioflavin T (ThT), an amyloid specific fluorescent dye that binds to β-sheet assemblies, to first evaluate the effect of NAPs on recombinant tau aggregation. For these studies, we expressed and purified full-length tau featuring a P301L mutation frequently observed in patients with frontotemporal dementia and Parkinsonism linked to chromosome 17 (FTDP-17). This missense mutation leads to local structure destabilization around the amyloid-forming region resulting in faster aggregation. Recombinant tauP301L aggregated in the presence of equimolar heparin sulfate (t1/2=6.5±0.4 h) starting with a very short 0.5 h lag phase, followed by a 24 h exponential growth phase. […] Compounds 2 and 4 are mono- and diaminated hexapeptides derived from the R2 PHF6* aggregation-prone sequence, whereas compounds 5, 6, 12, and 13 are all derived from the R3 PHF6 sequence. Several other NAPs had no effect on endpoint ThT fluorescence or lacked consistent inhibition across repeated experiments. […] NaOAc buffer, as evidenced by intense ThT fluorescence after 48 h (FIG. 1B).
Design and synthesis of aggregation-resistant backbone-aminated derivatives of mxyl-AD. The data above support the hypothesis that mxyl-AD mimetic macrocycle can engage in native-like hydrophobic cross-b interactions as well as edge-to-edge H-bonds along the fibril axis. We next sought to employ mxyl-AD as a template for the design of tau seeding inhibitors that could potentially cap fibril growth and block propagation. This required us to incorporate a chemical modification onto mxyl-AD that would preclude its ability to self-assemble without disrupting its capacity to adopt the conformation required to bind tau. We therefore designed two backbone N-amino peptide (NAP) derivatives of our tau mimic, mxyl-NAP1 and mxyl-NAP2 (Scheme 1). Each of these analogues features a backbone amide substitution that precludes canonical b-sheet H-bonding along one edge of the macrocycle, while leaving the other edge intact to engage the tau protein. […] Both mxyl-NAP1 and mxyl-NAP2, which feature a single backbone N-amino group within the amyloidogenic PHF6 module, were prepared on solid support starting from Fmoc-protected N-amino dipeptides.

[3] = system: HEK293 cells stably expressing tau-RD (LM)-YFP
Procedure: MTT cell viability assays were carried out on both HEK293 cells stably expressing tau-RD (LM)-YFP and SH-SY5Y cells. Cells were cultured in the DMEM/F12 complete medium containing 10% FBS, 1% penicillin/streptomycin, and 1% Glutamax in a 75 cm^2 cell culture flask under 5% CO2 at 37° C. Cell viability was determined using the MTT reduction assay. Briefly, 15,000 cells/well were plated in a 96-well tissue culture plate and were allowed to incubate overnight in a CO2 incubator. The medium was aspirated and the NAP inhibitor prepared in complete medium was added at a given final concentration. The plate was then allowed to incubate for additional 48 h in a CO2 incubator, and the medium was aspirated again and replaced with 0.5 mg/mL MTT prepared in complete medium and incubated for additional 3 h. The medium was then replaced with DMSO to dissolve formazan crystals, and the absorbance was measured at 570 nm using a Synergy H1 microplate reader. Each data set was collected from technical replicates on at least 2 different days.

[4] = target: T1, Aβ42 (Homo sapiens, UniProt P05067); test: ThT fluorescence assay with Aβ42; type: biochemical
T1 construct: Incubation of synthetic, full-length Aβ42 (40 μM)
T1 sequence (P05067 672-713 limits assumed): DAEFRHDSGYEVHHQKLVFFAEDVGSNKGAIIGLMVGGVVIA
Description: A peptidomimetic approach to tau inhibition offers prospects for achieving selectivity over other amyloids rich in f structure. As a preliminary test, we selected our best-performing aggregation-inhibitory tau mimic, 12, and determined its effect on Aβ42 aggregation in vitro (FIG. 6). […] We similarly observed no effect on aggregation kinetics at any of the concentrations tested.

[5] = target: T2, tauP301L fibrils (Homo sapiens, UniProt P10636, P618L); test: Cellular seeding assay with pre-formed tauP301L fibrils, HEK293 tau-RD(LM)-YFP biosensor cells; type: cell-based; details: for inhibition of propagation of pre-formed tauP301L fibrils: mature fibrils incubated with NAP 36 h before cells; for pIC50: pre-formed 0.19 μM tauP301L fibrils treated 36 h with NAP, cells 48 h, three repeated experiments, read-out: fibril capping IC50 in cells; for inhibition of endogenous tau aggregation without co-incubation: without the 36 h inhibitor + mature fibril co-incubation period
T2 construct: we expressed and purified full-length tau featuring a P301L mutation; His6 (N); made in house; host or cells: E. coli BL21 (DE3)
T2 sequence (P10636 1-383 isoform P10636-6 P243L): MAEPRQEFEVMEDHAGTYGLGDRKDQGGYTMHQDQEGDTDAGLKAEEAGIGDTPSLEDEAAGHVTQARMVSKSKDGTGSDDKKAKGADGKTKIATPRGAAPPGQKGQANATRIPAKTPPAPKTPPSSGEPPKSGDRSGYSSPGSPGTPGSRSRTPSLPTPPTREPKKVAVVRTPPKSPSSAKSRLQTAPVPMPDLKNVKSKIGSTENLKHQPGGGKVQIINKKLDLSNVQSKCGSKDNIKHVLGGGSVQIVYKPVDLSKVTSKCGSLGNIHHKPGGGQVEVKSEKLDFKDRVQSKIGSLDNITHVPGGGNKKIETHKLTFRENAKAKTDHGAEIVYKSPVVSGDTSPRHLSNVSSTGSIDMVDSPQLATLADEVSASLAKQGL
Procedure: Given that pathogenic tau can be secreted from cells in various forms (as oligomers, aggregates, or mature fibrils), we tested whether NAPs could block the cellular transmission of pre-formed fibrils. In this experiment, NAPs were incubated with mature tauP301L fibrils for 36 h prior to treatment of cells expressing tau-RD(LM)-YFP. […] We determined a fibril capping IC50 in cells in the 5 μM range across three repeated experiments (FIG. 4).
We then considered the possibility of di-NAPs 12 and 13 entering cells and inhibiting seeding by interacting with endogenous tau-RD(LM)-YFP, rather than with extracellular pre-formed fibrils. We thus repeated the experiment without the 36 h inhibitor+mature fibril co-incubation period.
For seeding experiments with fibrillar tau, recombinant tauP301L fibrils were prepared as described above (see the section on fibril formation) and sonicated for 3 min prior to use in this assay. In a reaction volume of 40, 8 μL of fibrils was diluted with 31 μL of low-serum Opti-MEM medium and then mixed with 1 μL of NAPs (DMSO concentration was constant across various concentrations of inhibitors). The reaction mixture was then allowed to incubate at 37° C. for 36 h, then mixed with 2 μL of Lipofectamine 2000, and further incubated for 20 min at rt. A 10 μL aliquot of this mixture was then added to 90 μL of cells (15,000 cells/well). Cells were incubated for additional 48 h before taking measurements on a BioTek Cytation 5 cell imager and a microplate reader. 10×10 pictures/well were taken at 20× magnification under an FITC channel, and the punctate counting were carried out using built-in software. […] Every experiment included control wells (no tau, no heparin, and no NAP). All data plots were generated with SigmaPlot. IC50 values were calculated by fitting the data set using the sigmoidal logistic four-parameter equation. Error bars represent standard deviation from technical replicates.

[6] = 24 h, 500 μM
Procedure: as §1

Row | Molecule | remaining at 24 h, 500 μM [1] | self-aggregation, ThT fluorescence of peptide alone [2] | toxicity to HEK293 biosensor cells in seeding experiments [3] | effect on Aβ42 aggregation (ThT) ([4]; 40 μM Aβ42, up to 4-fold molar excess (160 μM)) | effect on Aβ42 aggregation kinetics ([4]; any of the concentrations tested) | selectivity for tau over Aβ42 ([4]; in vitro) | inhibition of propagation of pre-formed tauP301L fibrils [5] | pIC50 [5] | inhibition of endogenous tau aggregation without co-incubation [5] | intact peptide in 25% human serum [6]
1 | CC[C@H](C)[C@@H](C(=O)N[C@H](C(=O)N(N)[C@@H](Cc1ccc(O)cc1)C(=O)N[C@@H](CCCCN)C(N)=O)C(C)C)N(N)C(=O)[C@H](CCC(N)=O)NC(=O)[C@@H](NC(C)=O)C(C)C [Compound 12, Ac-Val-Gln-aIle-Val-aTyr-Lys-NH2] (Ac-VQ[X1]V[X2]K-NH2) | > 83% | no such fluorescence | did not result in detectable toxicity | no inhibitory effect | no effect | in vitro selectivity for tau over Aβ42 | effectively inhibit propagation in a dose-dependent manner | ~5.30 | failed to inhibit endogenous tau aggregation | > 80%
2 | CC[C@H](C)[C@H](NC(=O)[C@H](CCC(N)=O)NC(=O)[C@@H](NC(C)=O)C(C)C)C(=O)N(N)[C@H](C(=O)N[C@@H](Cc1ccc(O)cc1)C(=O)N(N)[C@@H](CCCCN)C(N)=O)C(C)C [Compound 13, Ac-Val-Gln-Ile-aVal-Tyr-aLys-NH2] (Ac-VQI[X3]Y-{N(NH2)LysNH2}) | > 83% | no such fluorescence | did not result in detectable toxicity |  |  |  | effectively inhibit propagation in a dose-dependent manner | ~5.30 | failed to inhibit endogenous tau aggregation | > 80%
3 | Ac-aVal-Gln-aIle-Ile-Asn-Lys-NH2 (Ac-[aVal]Q[aIle′]INK-NH2; SMILES CC[C@H](C)[C@H](NC(=O)[C@H]([C@@H](C)CC)N(N)C(=O)[C@H](CCC(N)=O)NC(=O)[C@H](C(C)C)N(N)C(C)=O)C(=O)N[C@@H](CC(N)=O)C(=O)N[C@@H](CCCCN)C(N)=O) [Compound 4] |  | no such fluorescence |  |  |  |  | generally ineffective |  |  | 

Source: patent publication US20230399361A1, “MACROCYCLIC PEPTIDES” (UNIVERSITY OF NOTRE DAME DU LAC, priority 2022, published 2023)
